Results published in patent US7935722B2 (Eli Lilly and Company, priority 2005, dated 2011).
Like-named read-outs stand apart in the source and are kept apart here.

What was measured:
[1] = molecular target: T1, human AR (androgen receptor) (Homo sapiens, UniProt P10275); experiment: Steroid hormone nuclear receptor binding assay, AR binding
T1 construct: expressed in transfected cells; host or cells: 293 cells (293-AR lysate)
T1 sequence (P10275 1-920): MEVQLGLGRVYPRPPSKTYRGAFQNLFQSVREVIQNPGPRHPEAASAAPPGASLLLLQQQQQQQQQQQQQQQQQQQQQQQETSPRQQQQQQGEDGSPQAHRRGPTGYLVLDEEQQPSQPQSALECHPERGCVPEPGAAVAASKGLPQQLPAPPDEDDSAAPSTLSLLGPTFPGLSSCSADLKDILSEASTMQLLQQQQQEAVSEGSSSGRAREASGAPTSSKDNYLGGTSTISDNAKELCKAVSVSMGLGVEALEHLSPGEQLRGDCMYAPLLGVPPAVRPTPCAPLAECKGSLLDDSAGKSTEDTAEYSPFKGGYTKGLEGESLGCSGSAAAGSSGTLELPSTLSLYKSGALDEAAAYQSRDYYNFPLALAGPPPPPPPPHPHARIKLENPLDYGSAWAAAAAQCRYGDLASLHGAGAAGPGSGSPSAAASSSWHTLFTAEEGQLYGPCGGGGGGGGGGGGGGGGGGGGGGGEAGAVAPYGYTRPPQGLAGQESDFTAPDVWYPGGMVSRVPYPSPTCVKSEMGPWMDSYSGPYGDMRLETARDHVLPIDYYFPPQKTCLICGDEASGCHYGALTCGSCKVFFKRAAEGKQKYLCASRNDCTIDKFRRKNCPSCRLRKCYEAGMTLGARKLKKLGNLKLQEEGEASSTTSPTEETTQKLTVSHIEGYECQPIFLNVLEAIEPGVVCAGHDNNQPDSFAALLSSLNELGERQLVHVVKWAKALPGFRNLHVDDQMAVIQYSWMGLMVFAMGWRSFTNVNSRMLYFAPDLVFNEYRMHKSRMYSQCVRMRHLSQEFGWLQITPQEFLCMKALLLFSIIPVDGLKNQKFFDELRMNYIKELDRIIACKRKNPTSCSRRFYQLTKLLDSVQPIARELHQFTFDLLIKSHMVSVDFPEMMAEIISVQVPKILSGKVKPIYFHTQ
Procedure, shortened: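 Competition binding with lysates of 293 cells overexpressing human AR, [3H]-methyltrienolone tracer, compounds from about 0.01 nM to 10 μM, overnight at 4 °C; non-specific binding set with 500 nM methyltrienolone. Bound tracer counted by scintillation after charcoal-dextran separation; IC50 converted to Ki by Cheng-Prusoff using Kd from saturation binding.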

[2] = molecular target: T2, human androgen receptor (AR) (Homo sapiens, UniProt P10275); experiment: C2C12 AR/ARE reporter assay; assay type: cell-based
T2 construct: expressed in transfected cells; host or cells: mouse myoblast C2C12 cells, transiently co-transfected
T2 sequence (P10275 1-920): T1 sequence (P10275 1-920)
Procedure, shortened: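 Mouse C2C12 myoblasts co-transfected with AR/ARE reporter were plated in charcoal-stripped serum and treated for 48 h with compound from about 0.01 nM to 10 μM. Luciferase activity gave EC50 by 4-parameter logistic fit. Efficacy is expressed as % of maximal stimulation by 10 nM methyltrienolone.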

[3] = C2C12, read-out: C2C12 % Efficacy

| Compound | Ki [1] [nM] | EC50 [2] [nM] | Emax [2, 3] [%] | melting point | Ki ([1]; read-out: AR binding Ki, average of n trials) [nM] | EC50 ([2]; read-out: C2C12 EC50, C2C12 AR/ARE reporter assay, average of n trials) [nM] | Ki ([1]; average of n trials, read-out: AR binding Ki) [nM] | Emax ([2]; C2C12 AR/ARE reporter assay, average of n trials, read-out: C2C12 % Efficacy) [%] | EC50 ([2]; C2C12 AR/ARE reporter assay, average of n trials, read-out: C2C12 EC50) [nM] |
| --- | --- | --- | --- | --- | --- | --- | --- | --- | --- |
| CC(C)C(=O)NC1CCc2c(c3cc(C#N)ccc3n2Cc2ccccc2OC(F)F)C1 (stereo not drawn) [Example 97, N-[6-Cyano-9-(2-difluoromethoxy-benzyl)-2,3,4,9-tetrahydro-1H-carbazol-3-yl]-isobutyramide] | 4.6 | 32.8 | 102 | 217 to 219 °C |  |  |  |  |  |
| CC(C)C(=O)NC1CCc2c(c3cc(Br)ccc3n2Cc2cccc(F)c2)C1 (stereo not drawn) [Example 1, N-[9-(3-Fluorobenzyl)-6-bromo-2,3,4,9-tetrahydro-1H-carbazol-3-yl]isobutyramide] |  |  |  | 177 to 179 °C | 2.6 | 2.3 |  |  |  |
| CC(C)C(=O)NC1CCc2c(c3cc(F)ccc3n2Cc2ccccc2C#N)C1 (stereo not drawn) [Example 7] | 99.6 |  | 35.8 | 164 to 167 °C |  |  |  |  |  |
| COc1ccc(Cn2c3c(c4cc(Cl)ccc42)CC(NC(=O)C(C)C)CC3)cc1 (stereo not drawn) [Example 27] | 45.8 |  | 23.2 | 182 to 184 °C |  |  |  |  |  |
| CC(C)C(=O)NC1CCc2c(c3ccccc3n2Cc2ccccc2)C1 (stereo not drawn) [Example 2] | 17.7 | 313 | 59.4 | 191 to 193 °C |  |  |  |  |  |
| COc1cccc(Cn2c3c(c4cc(Br)ccc42)CC(NC(=O)C(C)C)CC3)c1 (stereo not drawn) [Example 37] | 9.1 | 109 | 95.5 | 176 to 180 °C |  |  |  |  |  |
| Cc1ccc2c(c1)c1c(n2Cc2ccccc2C#N)CCC(NC(=O)C(C)C)C1 (stereo not drawn) [Example 46] | 137 |  | 40.5 | 218 to 220 °C |  |  |  |  |  |
| CC(C)C(=O)NC1CCc2c(c3ccccc3n2Cc2cccc(F)c2)C1 (stereo not drawn) [Example 3] | 10.1 | 194 | 66.4 | 170 to 172 °C |  |  |  |  |  |
| CCOC(=O)Nc1ccc2c(c1)c1c(n2Cc2cccc(F)c2)CC[C@@H](NC(=O)C(C)C)C1 [Example 189, (R)-[9-(3-Fluoro-benzyl)-6-isobutyrylamino-6,7,8,9-tetrahydro-5H-carbazol-3-yl]-carbamic acid ethyl ester] |  |  |  | 169 to 171 °C |  |  | 8.3 | 52.9 | 1.2 |
| Cc1ccc2c(c1)c1c(n2Cc2cccc(Cl)c2)CCC(NC(=O)C(C)C)C1 (stereo not drawn) [Example 48] | 9.4 | 116 | 69.5 | 190 to 192 °C |  |  |  |  |  |
| CC(C)C(=O)NC1CCc2c(c3cc(F)ccc3n2Cc2cccc(F)c2)C1 (stereo not drawn) [Example 8] | 2.5 | 57.8 | 108 | 181 to 184 °C |  |  |  |  |  |
| CC(C)C(=O)NC1CCc2c(c3cc(F)ccc3n2Cc2ccc(Cl)cc2)C1 (stereo not drawn) [Example 13] | 33.5 | 1030 | 55.5 | 188 to 190 °C |  |  |  |  |  |
| CC(C)C(=O)N[C@H]1CCc2c(c3cc(C#N)ccc3n2Cc2cccc(F)c2)C1 [Example 124, (S)-N-(6-Cyano-9-(3-fluorobenzyl)-2,3,4,9-tetrahydro-1H-carbazol-3-yl)isobutyramide] | 195 | 1110 | 49.9 | 223 to 225 °C |  |  |  |  |  |
| Cc1ccc2c(c1)c1c(n2Cc2ccccc2)CCC(NC(=O)C(C)C)C1 (stereo not drawn) [Example 42] | 63.6 | 30.4 | 73 | 197 to 199 °C |  |  |  |  |  |
| CC(C)C(=O)NC1CCc2c(c3cc(F)ccc3n2Cc2cccc(C#N)c2)C1 (stereo not drawn) [Example 11] | 61.5 | 2180 | 36.3 | 184 to 186 °C |  |  |  |  |  |
| CC(C)C(=O)NC1CCc2c(c3cc(F)ccc3n2Cc2cccc(Cl)c2)C1 (stereo not drawn) [Example 9] | 7.2 | 113 | 62.3 | 177 to 179 °C |  |  |  |  |  |

| Compound | Ki [1] [nM] | EC50 [2] [nM] | Emax [2, 3] [%] | melting point | Ki ([1]; read-out: AR binding Ki, average of n trials) [nM] | EC50 ([2]; read-out: C2C12 EC50, C2C12 AR/ARE reporter assay, average of n trials) [nM] | Ki ([1]; average of n trials, read-out: AR binding Ki) [nM] | Emax ([2]; C2C12 AR/ARE reporter assay, average of n trials, read-out: C2C12 % Efficacy) [%] | EC50 ([2]; C2C12 AR/ARE reporter assay, average of n trials, read-out: C2C12 EC50) [nM] |
| --- | --- | --- | --- | --- | --- | --- | --- | --- | --- |
| CC(C)C(=O)NC1CCc2c(c3cc(Br)ccc3n2Cc2cccc(C#N)c2)C1 (stereo not drawn) [Example 38] | 9.7 | 108 | 79.5 | 228 to 230 °C |  |  |  |  |  |
| COc1ccccc1Cn1c2c(c3cc(Cl)ccc31)CC(NC(=O)C(C)C)CC2 (stereo not drawn) [Example 19, N-[6-chloro-9-(2-methoxy-benzyl)-2,3,4,9-tetrahydro-1H-carbazol-3-yl]-isobutyramide] | 37.8 | 245 | 63.2 | 141 to 149 °C |  |  |  |  |  |
| Cc1ccc2c(c1)c1c(n2Cc2ccccc2Cl)CCC(NC(=O)C(C)C)C1 (stereo not drawn) [Example 44] | 94.2 | 305 | 71.1 | 194 °C |  |  |  |  |  |
| COc1cc2c3c(n(Cc4cccc(F)c4)c2cc1Cl)CCC(NC(=O)C(C)C)C3 (stereo not drawn) [Example 59] | 59 | 242 | 39.5 | 212 to 215 °C |  |  |  |  |  |
| CC(C)C(=O)NC1CCc2c(c3cc(Cl)ccc3n2Cc2ccc(C#N)cc2)C1 (stereo not drawn) [Example 28] | 12.8 | 301 | 64.3 | 158 to 162 °C |  |  |  |  |  |
| CC(C)C(=O)NC1CCc2c(c3cc(C#N)ccc3n2Cc2ccc(F)cn2)C1 (stereo not drawn) [Example 181, N-[6-Cyano-9-(5-fluoro-pyridin-2-ylmethyl)-2,3,4,9-tetrahydro-1H-carbazol-3-yl]-isobutyramide] | 34.6 | 87.8 | 93.5 | 235 to 238 °C (dec.) |  |  |  |  |  |
| CC(C)C(=O)N[C@@H]1CCc2c(c3cc(-c4ccno4)ccc3n2Cc2cccc(F)c2)C1 [Example 192, (R)-N-[9-(3-Fluoro-benzyl)-6-isoxazol-5-yl-2,3,4,9-tetrahydro-1H-carbazol-3-yl]-isobutyramide] | 2.6 | 7.7 | 66.5 | 238 to 241 °C |  |  |  |  |  |
| COc1ccc(Cn2c3c(c4cc(Br)ccc42)CC(NC(=O)C(C)C)CC3)cc1 (stereo not drawn) [Example 41] | 43.2 | 1820 | 46.6 | 120 to 125 °C |  |  |  |  |  |
| CC(C)C(=O)NC1CCc2c(c3cc(Br)ccc3n2Cc2ccc(Cl)cc2)C1 (stereo not drawn) [Example 40] | 30.9 | 188 | 68 | 142 to 149 °C |  |  |  |  |  |
| CO/N=C/c1ccc2c(c1)c1c(n2Cc2cccc(F)n2)CC[C@@H](NC(=O)C2CC2)C1 [Example 209] | 7.8 | 1.1 | 95.7 | 223 to 225 °C |  |  |  |  |  |
| Cc1cccc2c3c(n(Cc4cccc(F)c4)c12)CCC(NC(=O)C(C)C)C3 (stereo not drawn) [Example 60] | 35.9 | 299 | 74.2 | 188 to 191 °C |  |  |  |  |  |
| N#Cc1ccc2c(c1)c1c(n2Cc2ccccn2)CC[C@@H](NC(=O)C2CC2)C1 [Example 196, Cyclopropanecarboxylic acid[6-cyano-9-(pyridin-2-ylmethyl)-2,3,4,9-tetrahydro-1H-carbazol-3-yl]-amide] | 16.1 | 15.3 | 95.2 | 239 to 241 °C |  |  |  |  |  |
| CC(C)C(=O)NC1CCc2c(c3cc(F)ccc3n2Cc2ccc(F)cc2)C1 (stereo not drawn) [Example 12] | 25 | 186 | 50 | 166 to 168 °C |  |  |  |  |  |
| CC(C)C(=O)NC1CCc2c(c3cc(F)ccc3n2Cc2ccc(C#N)cc2)C1 (stereo not drawn) [Example 14] | 81.4 | 927 | 36.4 | 181 to 184 °C |  |  |  |  |  |
| CC(C)C(=O)NC1CCc2c(c3cc(C#N)ccc3n2Cc2ccccc2C(F)(F)F)C1 (stereo not drawn) [Example 96, N-[6-Cyano-9-(2-trifluoromethyl-benzyl)-2,3,4,9-tetrahydro-1H-carbazol-3-yl]-isobutyramide] | 14.7 | 123 | 88 | 222 to 225 °C |  |  |  |  |  |
